According to patent US12285435B2, “Multivesicular liposome formulations of dexamethasone” (Pacira Pharmaceuticals, Inc., priority 2021, dated 2025):

Legend:
[1] = Pharmacokinetic study of subcutaneous DSP-MVL formulations vs bolus DSP in rats (dexamethasone plasma levels); assay type: in vivo; details: rat
Protocol: Pharmacokinetic (PK) studies of the subcutaneous dosing of DSP discussed herein were performed on rats where bolus DSP was compared to various formulations of DSP-MVLs at doses between 1.0 to 3.5 mg/kg for rats and at 0.5 mg/kg for beagles. Formulations 3AA, 5AA, 8AA, 11AA, 14AA, 4B, and 1C were diluted to 19-20% PPV from the initial PPV of about 30-45% with a final DSP concentration of approximately about 3 mg/mL to 3.5 mg/mL. Formulations 47-49 were not diluted, and the DSP concentration in the final product was approximately 7 mg/mL. In addition, PK studies of Formulation 18AA were performed on beagles through subcutaneous and epidural dosing of DSP of about 0.5 mg/kg.
Plasma samples were collected at different times points (0, 24, 48, 72, 96, 120, 144 and 168 hours post dose) for analysis. Blood samples were collected via the right saphenous vein using a 19-gauge needle prick or cardiac puncture for the final time point, placed into chilled tubes containing the appropriate anticoagulant, inverted several times to mix, protected from light, and kept on ice until centrifugation. A summary of the data in FIG. 1-6 is set forth below in Tables 1-2. For the rat studies, Cumulative % AUC is expressed as a percentage of the total AUC obtained in animals administered with Free DSP. For the dog studies, Cumulative % AUC is expressed as a percentage of the total AUC for each dog.
FIG. 1 is a line chart illustrating the dose normalized dexamethasone plasma levels obtained in rats as a function of time, following administration of several DSP-MVL formulations varying in internal pH (Formulations 47-49) as compared to DSP in a saline solution (“Free DSP Solution” Formulation).
FIG. 4 is a line chart illustrating the dose normalized dexamethasone plasma level obtained in rats as a function of time, following administration of two DSP-MVL formulations with and without triolein (Formulations 5AA and 3AA).
FIG. 5 is a line chart illustrating the dose normalized dexamethasone plasma levels obtained in rats as a function of time, following administration of several DSP-MVL formulations varying in lipid component concentrations (Formulations 4B and 1C).

[2] = DSP, rapid absorption into the blood stream; cited from earlier work
[3] = percentage of the total AUC obtained in animals administered with Free DSP

Question: With “dexamethasone sodium phosphate [Free DSP]” as the substance, how does the Tmax [1] read?
Answer: 1 h

Question: What about the AUC/dose ([1]; dose normalized) of the same substance?
Answer: 1182 ng·h/mL/mg/kg

Question: What about the “Cumulative AUC % at 7 days” value [1, 3] of the same substance?
Answer: 100%

Question: And the “Cumulative AUC % at 14 days” value [1, 3]?
Answer: 100%

Question: And the plasma half-life [2]?
Answer: ~3.33 h
